Test results from PubChem BioAssay AID1918948 (Molecular Pharmacology Branch, DTP, NCI, 2023).

Tested on: K-562 leukemia growth, % test/control
Test: Anticancer human tumor K-562 cell line growth inhibition;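 also: spheroids exposed to compounds for 7 days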;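 as to viability, T/C: 100% = DMSO vehicle wells and lower values mean fewer viable cells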
Settings: spheroids with HUVEC and MSC; for IC50: curve of first compound; for viability, T/C: stronger effect = lower value
Method in brief: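 Drug combinations with the LSD1 inhibitor iadademstat tested on tumor cells co-cultured as spheroids with endothelial cells and mesenchymal stem cells. Concentrations descended in half-log increments from clinical Cmax or 10 microM.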

[1] = second compound 0.1 µM, first compound 0.000949 µM
[2] = second compound 0.1 µM, first compound 0.003 µM
[3] = second compound 0.1 µM, first compound 0.00949 µM
[4] = second compound 0.1 µM, first compound 0.03 µM
[5] = second compound 0.1 µM, first compound 0.0949 µM
[6] = second compound 0.1 µM, first compound 0.3 µM
[7] = second compound 0.316 µM, first compound 0.000949 µM
[8] = second compound 0.316 µM, first compound 0.003 µM
[9] = second compound 0.316 µM, first compound 0.00949 µM
[10] = second compound 0.316 µM, first compound 0.03 µM
[11] = second compound 0.316 µM, first compound 0.0949 µM
[12] = second compound 0.316 µM, first compound 0.3 µM
[13] = second compound 1 µM, first compound 0.000949 µM
[14] = second compound 1 µM, first compound 0.003 µM
[15] = second compound 1 µM, first compound 0.00949 µM
[16] = second compound 1 µM, first compound 0.03 µM
[17] = second compound 1 µM, first compound 0.0949 µM
[18] = second compound 1 µM, first compound 0.3 µM
[19] = second compound 3.16 µM, first compound 0.000949 µM
[20] = second compound 3.16 µM, first compound 0.003 µM
[21] = second compound 3.16 µM, first compound 0.00949 µM
[22] = second compound 3.16 µM, first compound 0.03 µM
[23] = second compound 3.16 µM, first compound 0.0949 µM
[24] = second compound 3.16 µM, first compound 0.3 µM
[25] = second compound 10 µM, first compound 0.000949 µM
[26] = second compound 10 µM, first compound 0.003 µM
[27] = second compound 10 µM, first compound 0.00949 µM
[28] = second compound 10 µM, first compound 0.03 µM
[29] = second compound 10 µM, first compound 0.0949 µM
[30] = second compound 10 µM, first compound 0.3 µM

CC[C@@]1(O)C(=O)OCc2c1cc1n(c2=O)Cc2cc3c(CN(C)C)c(O)ccc3nc2-1 + NC1CCC(NC2CC2c2ccccc2)CC1
IC50 (second compound 0.1 µM): 1.7 nM
IC50 (second compound 0.316 µM): 1.73 nM
IC50 (second compound 1 µM): 1.69 nM
IC50 (second compound 3.16 µM): 1.77 nM
IC50 (second compound 10 µM): 1.53 nM
viability, T/C (second compound 0.1 µM, first compound 0.000316 µM): 98.9%
viability, T/C (second compound 0.1 µM, first compound 0.001 µM): 63.2%
viability, T/C (second compound 0.1 µM, first compound 0.00316 µM): 34.7%
viability, T/C (second compound 0.1 µM, first compound 0.01 µM): 16.3%
viability, T/C (second compound 0.1 µM, first compound 0.0316 µM): 8.26%
viability, T/C (second compound 0.1 µM, first compound 0.1 µM): 4.03%
viability, T/C (second compound 0.316 µM, first compound 0.000316 µM): 101%
viability, T/C (second compound 0.316 µM, first compound 0.001 µM): 64.6%
viability, T/C (second compound 0.316 µM, first compound 0.00316 µM): 33.9%
viability, T/C (second compound 0.316 µM, first compound 0.01 µM): 15.8%
viability, T/C (second compound 0.316 µM, first compound 0.0316 µM): 7.94%
viability, T/C (second compound 0.316 µM, first compound 0.1 µM): 3.55%
viability, T/C (second compound 1 µM, first compound 0.000316 µM): 99.5%
viability, T/C (second compound 1 µM, first compound 0.001 µM): 64.5%
viability, T/C (second compound 1 µM, first compound 0.00316 µM): 32.8%
viability, T/C (second compound 1 µM, first compound 0.01 µM): 14.4%
viability, T/C (second compound 1 µM, first compound 0.0316 µM): 6.59%
viability, T/C (second compound 1 µM, first compound 0.1 µM): 3.47%
viability, T/C (second compound 3.16 µM, first compound 0.000316 µM): 97.6%
viability, T/C (second compound 3.16 µM, first compound 0.001 µM): 65.3%
viability, T/C (second compound 3.16 µM, first compound 0.00316 µM): 34.5%
viability, T/C (second compound 3.16 µM, first compound 0.01 µM): 15.1%
viability, T/C (second compound 3.16 µM, first compound 0.0316 µM): 7.29%
viability, T/C (second compound 3.16 µM, first compound 0.1 µM): 4.79%
viability, T/C (second compound 10 µM, first compound 0.000316 µM): 94.3%
viability, T/C (second compound 10 µM, first compound 0.001 µM): 62.6%
viability, T/C (second compound 10 µM, first compound 0.00316 µM): 28.1%
viability, T/C (second compound 10 µM, first compound 0.01 µM): 12.8%
viability, T/C (second compound 10 µM, first compound 0.0316 µM): 5.5%
viability, T/C (second compound 10 µM, first compound 0.1 µM): 2.86%

CCc1c2c(nc3ccc(O)cc13)-c1cc3c(c(=O)n1C2)COC(=O)[C@]3(O)CC + NC1CCC(NC2CC2c2ccccc2)CC1
IC50 (second compound 0.1 µM): < 0.949 nM
IC50 (second compound 0.316 µM): < 0.949 nM
IC50 (second compound 1 µM): < 0.949 nM
IC50 (second compound 3.16 µM): < 0.949 nM
IC50 (second compound 10 µM): < 0.949 nM
viability, T/C [1]: 5.18%
viability, T/C [2]: 3.15%
viability, T/C [3]: 1.66%
viability, T/C [4]: 1.09%
viability, T/C [5]: 0.45%
viability, T/C [6]: 0.5%
viability, T/C [7]: 5.49%
viability, T/C [8]: 3.06%
viability, T/C [9]: 1.72%
viability, T/C [10]: 2.09%
viability, T/C [11]: 0.56%
viability, T/C [12]: 0.51%
viability, T/C [13]: 5.31%
viability, T/C [14]: 3.05%
viability, T/C [15]: 1.8%
viability, T/C [16]: 1.24%
viability, T/C [17]: 1.88%
viability, T/C [18]: 0.5%
viability, T/C [19]: 5.35%
viability, T/C [20]: 3.03%
viability, T/C [21]: 1.7%
viability, T/C [22]: 1.4%
viability, T/C [23]: 0.45%
viability, T/C [24]: 0.47%
viability, T/C [25]: 4.28%
viability, T/C [26]: 2.29%
viability, T/C [27]: 1.7%
viability, T/C [28]: 1.31%
viability, T/C [29]: 0.58%
viability, T/C [30]: 2.36%

Nc1ccn(C2OC(CO)C(O)C2(F)F)c(=O)n1 (stereo not given) + NC1CCC(NC2CC2c2ccccc2)CC1
IC50 (second compound 0.1 µM): < 0.949 nM
IC50 (second compound 0.316 µM): < 0.949 nM
IC50 (second compound 1 µM): < 0.949 nM
IC50 (second compound 3.16 µM): < 0.949 nM
IC50 (second compound 10 µM): < 0.949 nM
viability, T/C [1]: 24%
viability, T/C [2]: 6.98%
viability, T/C [3]: 5.69%
viability, T/C [4]: 5.94%
viability, T/C [5]: 6.11%
viability, T/C [6]: 5.96%
viability, T/C [7]: 25.4%
viability, T/C [8]: 7.37%
viability, T/C [9]: 5.62%
viability, T/C [10]: 5.72%
viability, T/C [11]: 7.48%
viability, T/C [12]: 6.94%
viability, T/C [13]: 27.7%
viability, T/C [14]: 6.4%
viability, T/C [15]: 5.72%
viability, T/C [16]: 6.07%
viability, T/C [17]: 6%
viability, T/C [18]: 6%
viability, T/C [19]: 20.3%
viability, T/C [20]: 6.36%
viability, T/C [21]: 6.71%
viability, T/C [22]: 5.11%
viability, T/C [23]: 5.57%
viability, T/C [24]: 5.77%
viability, T/C [25]: 12.7%
viability, T/C [26]: 5.54%
viability, T/C [27]: 5.5%
viability, T/C [28]: 4.88%
viability, T/C [29]: 5.09%
viability, T/C [30]: 5.72%
